Data from EP4678638A1, “NEW E3 UBIQUITIN LIGASE LIGAND, PROTEIN DEGRADATION AGENT AND USE THEREOF” (priority 2023, dated 2024).

Assays:
H1975 = test: CCK-8 proliferation, NCI-H1975 (H1975); type: cell-based, Human; conditions: Homo sapiens, NCI-H1975; CCK-8; 96 hours; read-out: Inhibitory activity (IC50) on tumor cell proliferation, H1975
Outline: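 CCK-8 viability readout; IC50 from growth-inhibition curve fitting. Cells plated, dosed 24h later with a 10-point series, top 10µM, 5-fold steps. Culture at 37°C, 5% CO2.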

EGFR = test: Western blot degradation of EGFR (H1975 Cell); type: cell-based, Human; conditions: Table D2
Description: Conventional Western blot assay was performed to evaluate the effects of the compounds of the present disclosure on the expression of target proteins in cells.
(1) Cell Seeding and Protein Harvesting: The selected cells were processed according to the cell seeding procedure and protein harvesting procedure in Table III-2. Table III-2 Cell Seeding and Protein Harvesting Procedures
(2) To the collected supernatant, 5X SDS sample loading buffer was added, followed by denaturation at 95°C for 5 minutes. The denatured samples were then separated by SDS-PAGE electrophoresis on a polyacrylamide gel. Proteins were transferred to a nitrocellulose membrane (0.45 µm NC membrane), blocked with blocking buffer at room temperature for 1 hour, and subjected to antibody incubation and development procedures according to the antibody manufacturer's instructions (Cell Signaling Technology).
Half-Maximal Degradation Concentration value (the drug concentration required for degrading proteins by 50%, abbreviated as DC50) reads method: comparing the grayscale values of Western blot bands from drug-treated samples with those from blank DMSO-treated controls, and identifying the drug concentration range at which the grayscale value is half that of the DMSO-treated control bands.
DC50 values can be calculated using ImageJ software to measure grayscale values of Western blot bands from drug-treated samples. The concentration-response curve is fitted to estimate the drug concentration corresponding to half the grayscale value.
Target protein remaining (%) refers to the percentage of target protein remaining in hPBMC cells after treatment with protein degrader compounds.
Calculation method for target protein remaining (%): Use ImageJ software to measure grayscale values of Western blot bands from drug (protein degrader)-treated samples. The grayscale value of drug-treated bands is divided by that of internal control protein bands, and the resulting quotient is normalized to obtain the relative percentage of remaining target protein after protein degrader treatment.
Target protein degradation rate (%) = 100% - target protein remaining (%).

IC50 (H1975) | SMILES | Degradation of substrate protein EGFR (substrate protein remaining %) (EGFR)
10 to 50 nM | O=C1CCN(c2ccc(CN3CCN(C4CCN(c5ccc(-c6cc(F)c7c(c6)C(=O)N(C(C(=O)Nc6nccs6)c6ncn8c6CCC8)C7)cc5)CC4(F)F)CC3)cc2)C(=O)N1 (stereo not shown) [GT-06318, 2-(6,7-dihydro-5H-pyrrolo[1,2-c]imidazol-1-yl)-2-(6-(4-(4-(4-(4-(2,4-dioxotetrahydropyrimidin-1(2H)-yl)benzyl)piperazin-1-yl)-3,3-difluoropiperidin-1-yl)phenyl)-4-fluoro-1-oxoisoindolin-2-yl)-N-(thiazol-2-yl)acetamide] | A (A is defined as 0% ≤ substrate protein remaining % ≤ 80%)
1 to 10 nM | O=C1CCN(c2ccc(CN3CCN(C4CCN(c5ccc(-c6cc(F)c7c(c6)C(=O)N(C(C(=O)Nc6nccs6)c6ncn8c6CCC8)C7)cc5)CC4(F)F)CC3)nc2)C(=O)N1 (stereo not shown) [GT-06319, 2-(6,7-dihydro-5H-pyrrolo[1,2-c]imidazol-1-yl)-2-(6-(4-(4-(4-((5-(2,4-dioxotetrahydropyrimidin-1(2H)-yl)pyridin-2-yl)methyl)piperazin-1-yl)-3,3-difluoropiperidin-1-yl)phenyl)-4-fluoro-1-oxoisoindolin-2-yl)-N-(thiazol-2-yl)acetamide] | A (A is defined as 0% ≤ substrate protein remaining % ≤ 80%)
1 to 10 nM | O=C1CCN(c2ccc(CN3CCC(N4CCN(c5ccc(-c6cc(F)c7c(c6)C(=O)N(C(C(=O)Nc6nccs6)c6ncn8c6CCC8)C7)cc5)CC4)CC3)cn2)C(=O)N1 (stereo not shown) [GT-06330, 2-(6,7-dihydro-5H-pyrrolo[1,2-c]imidazol-1-yl)-2-(6-(4-(4-(1-((6-(2,4-dioxotetrahydropyrimidin-1(2H)-yl)pyridin-3-yl)methyl)piperidin-4-yl)piperazin-1-yl)phenyl)-4-fluoro-1-oxoisoindolin-2-yl)-N-(thiazol-2-yl)acetamide] | A (A is defined as 0% ≤ substrate protein remaining % ≤ 80%)
1 to 10 nM | O=C1CCN(c2ccc(CN3CCN(c4ccc(-c5cc(F)c6c(c5)C(=O)N(C(C(=O)Nc5nccs5)c5ncn7c5CCC7)C6)cc4)CC3)cn2)C(=O)N1 (stereo not shown) [GT-06166, 2-(6,7-dihydro-5H-pyrrolo[1,2-c]imidazol-1-yl)-2-(6-(4-(4-((6-(2,4-dioxotetrahydropyrimidin-1(2H)-yl)pyridin-3-yl)methyl)piperazin-1-yl)phenyl)-4-fluoro-1-oxoisoindolin-2-yl)-N-(thiazol-2-yl)acetamide] | A (A is defined as 0% ≤ substrate protein remaining % ≤ 80%)
10 to 50 nM | O=C1CCN(c2ccc(CN3C[C@@H]4C[C@H]3CN4c3ccc(-c4cc(F)c5c(c4)C(=O)N(C(C(=O)Nc4nccs4)c4ncn6c4CCC6)C5)cc3)nc2)C(=O)N1 (stereo partly drawn) [GT-05119, 2-(6,7-dihydro-5H-pyrrolo[1,2-c]imidazol-1-yl)-2-(6-(4-((1S,4S)-5-((5-(2,4-dioxotetrahydropyrimidin-1(2H)-yl)pyridin-2-yl)methyl)-2,5-diazabicyclo[2.2.1]heptan-2-yl)phenyl)-4-fluoro-1-oxoisoindolin-2-yl)-N-(thiazol-2-yl)acetamide] | A (A is defined as 0% ≤ substrate protein remaining % ≤ 80%)
10 to 50 nM | O=C1CCC(c2ccc(CN3C[C@@H]4C[C@H]3CN4c3ccc(-c4cc(F)c5c(c4)C(=O)N(C(C(=O)Nc4nccs4)c4ncn6c4CCC6)C5)cc3)cc2)C(=O)N1 (stereo partly drawn) [GT-05115, 2-(6,7-dihydro-5H-pyrrolo[1,2-c]imidazol-1-yl)-2-(6-(4-((1S,4S)-5-(4-(2,6-dioxopiperidin-3-yl)benzyl)-2,5-diazabicyclo[2.2.1]heptan-2-yl)phenyl)-4-fluoro-1-oxoisoindolin-2-yl)-N-(thiazol-2-yl)acetamide] | A (A is defined as 0% ≤ substrate protein remaining % ≤ 80%)
1 to 10 nM | O=C1CCN(c2ccc(CN3CCN(c4ccc(-c5cc(F)c6c(c5)C(=O)N(C(C(=O)Nc5nccs5)c5ncn7c5CCC7)C6)cc4)CC3)nc2)C(=O)N1 (stereo not shown) [GT-06229, 2-(6,7-dihydro-5H-pyrrolo[1,2-c]imidazol-1-yl)-2-(6-(4-(4-((5-(2,4-dioxotetrahydropyrimidin-1(2H)-yl)pyridin-2-yl)methyl)piperazin-1-yl)phenyl)-4-fluoro-1-oxoisoindolin-2-yl)-N-(thiazol-2-yl)acetamide] | A (A is defined as 0% ≤ substrate protein remaining % ≤ 80%)
1 to 10 nM | O=C1CCN(c2cc(CN3C[C@H]4C[C@@H]3CN4c3ccc(-c4cc(F)c5c(c4)C(=O)N(C(C(=O)Nc4nccs4)c4ncn6c4CCC6)C5)cc3)c(F)cn2)C(=O)N1 (stereo partly drawn) [GT-07386, 2-(6,7-dihydro-5H-pyrrolo[1,2-c]imidazol-1-yl)-2-(6-(4-((1R,4R)-5-((2-(2,4-dioxotetrahydropyrimidin-1(2H)-yl)-5-fluoropyridin-4-yl)methyl)-2,5-diazabicyclo[2.2.1]heptan-2-yl)phenyl)-4-fluoro-1-oxoisoindolin-2-yl)-N-(thiazol-2-yl)acetamide] | A (A is defined as 0% ≤ substrate protein remaining % ≤ 80%)
10 to 50 nM | O=C1CCC(c2ccc(CN3CCC(N4CCN(c5ccc(-c6cc(F)c7c(c6)C(=O)N(C(C(=O)Nc6nccs6)c6ncn8c6CCC8)C7)cc5)CC4)CC3)cc2)C(=O)N1 (stereo not shown) [GT-06326, 2-(6,7-dihydro-5H-pyrrolo[1,2-c]imidazol-1-yl)-2-(6-(4-(4-(1-(4-(2,6-dioxopiperidin-3-yl)benzyl)piperidin-4-yl)piperazin-1-yl)phenyl)-4-fluoro-1-oxoisoindolin-2-yl)-N-(thiazol-2-yl)acetamide] | A (A is defined as 0% ≤ substrate protein remaining % ≤ 80%)
1 to 10 nM | O=C1CCC(c2ccc(CN3CCN(C4CCN(c5ccc(-c6cc(F)c7c(c6)C(=O)N(C(C(=O)Nc6nccs6)c6ncn8c6CCC8)C7)cc5)CC4)CC3)cc2)C(=O)N1 (stereo not shown) [GT-06243, 2-(6,7-dihydro-5H-pyrrolo[1,2-c]imidazol-1-yl)-2-(6-(4-(4-(4-(4-(2,6-dioxopiperidin-3-yl)benzyl)piperazin-1-yl)piperidin-1-yl)phenyl)-4-fluoro-1-oxoisoindolin-2-yl)-N-(thiazol-2-yl)acetamide] | A (A is defined as 0% ≤ substrate protein remaining % ≤ 80%)
1 to 10 nM | O=C1CCN(c2ccc(CN3CCN(C4CCN(c5ccc(-c6cc(F)c7c(c6)C(=O)N(C(C(=O)Nc6nccs6)c6ncn8c6CCC8)C7)cc5)CC4)CC3)cc2)C(=O)N1 (stereo not shown) [GT-06244, 2-(6,7-dihydro-5H-pyrrolo[1,2-c]imidazol-1-yl)-2-(6-(4-(4-(4-(4-(2,4-dioxotetrahydropyrimidin-1(2H)-yl)benzyl)piperazin-1-yl)piperidin-1-yl)phenyl)-4-fluoro-1-oxoisoindolin-2-yl)-N-(thiazol-2-yl)acetamide] | A (A is defined as 0% ≤ substrate protein remaining % ≤ 80%)
1 to 10 nM | O=C1CCN(c2ccc(CN3C[C@H]4C[C@@H]3CN4c3ccc(-c4cc(F)c5c(c4)C(=O)N(C(C(=O)Nc4nccs4)c4ncn6c4CCC6)C5)cc3)cc2)C(=O)N1 (stereo partly drawn) [GT-06177, 2-(6,7-dihydro-5H-pyrrolo[1,2-c]imidazol-1-yl)-2-(6-(4-((1R,4R)-5-(4-(2,4-dioxotetrahydropyrimidin-1(2H)-yl)benzyl)-2,5-diazabicyclo[2.2.1]heptan-2-yl)phenyl)-4-fluoro-1-oxoisoindolin-2-yl)-N-(thiazol-2-yl)acetamide] | A (A is defined as 0% ≤ substrate protein remaining % ≤ 80%)
10 to 50 nM | O=C1CCC(Nc2cccc(CN3CCC(N4CCN(c5ccc(-c6cc(F)c7c(c6)C(=O)N(C(C(=O)Nc6nccs6)c6ncn8c6CCC8)C7)cc5)CC4)CC3)c2)C(=O)N1 (stereo not shown) [GT-06331, 2-(6,7-dihydro-5H-pyrrolo[1,2-c]imidazol-1-yl)-2-(6-(4-(4-(1-(3-((2,6-dioxopiperidin-3-yl)amino)benzyl)piperidin-4-yl)piperazin-1-yl)phenyl)-4-fluoro-1-oxoisoindolin-2-yl)-N-(thiazol-2-yl)acetamide] | A (A is defined as 0% ≤ substrate protein remaining % ≤ 80%)
1 to 10 nM | O=C1CCN(c2ccc(CN3CCN(c4ccc(-c5cc(F)c6c(c5)C(=O)N(C(C(=O)Nc5nccs5)c5ncn7c5CCC7)C6)cc4)CC3)cc2)C(=O)N1 (stereo not shown) [GT-06164, 2-(6,7-dihydro-5H-pyrrolo[1,2-c]imidazol-1-yl)-2-(6-(4-(4-(4-(2,4-dioxotetrahydropyrimidin-1(2H)-yl)benzyl)piperazin-1-yl)phenyl)-4-fluoro-1-oxoisoindolin-2-yl)-N-(thiazol-2-yl)acetamide] | A (A is defined as 0% ≤ substrate protein remaining % ≤ 80%)
